Reference: BindingDB's records for doi:10.1016/j.bmcl.2004.02.106 (Merck Research Laboratories, 2004)
“And” between values parts separate entries of the source, which are not always exact repeats. Equal values may be shown once.

Target: Sphingosine 1-phosphate receptor 5 (Homo sapiens) (UniProt Q9H228)
Experiment: Inhibition of [33P]-S1P binding to human Sphingosine 1-phosphate receptor 5 expressed on CHO cell membranes

Chain of Sphingosine 1-phosphate receptor 5 (Homo sapiens) (Q9H228 whole entry, looked up): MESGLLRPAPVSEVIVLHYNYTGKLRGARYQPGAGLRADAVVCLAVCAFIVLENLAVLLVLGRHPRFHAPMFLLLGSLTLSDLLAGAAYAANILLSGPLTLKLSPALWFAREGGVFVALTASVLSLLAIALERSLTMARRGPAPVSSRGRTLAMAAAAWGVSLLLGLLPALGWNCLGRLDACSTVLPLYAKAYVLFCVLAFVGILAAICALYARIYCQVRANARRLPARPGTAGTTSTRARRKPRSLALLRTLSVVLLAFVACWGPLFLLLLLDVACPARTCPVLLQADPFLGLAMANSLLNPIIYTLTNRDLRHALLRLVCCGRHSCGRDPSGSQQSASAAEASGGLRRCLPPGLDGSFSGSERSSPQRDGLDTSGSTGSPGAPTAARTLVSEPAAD

| SMILES | IC50 |
| --- | --- |
| CCCCCCCCc1ccc(CC[C@@H](N)CC(=O)[PH](O)(O)O)cc1 | 4.5 nM and 33 nM |
| CCCCCCCCc1ccc(CCC(N)C(=O)C[PH](O)(O)O)cc1 (centres undefined) | 240 nM and 76 nM |
| CCCCCCCCc1ccc(CC[C@H](N)CC(=O)[PH](O)(O)O)cc1 | 27 nM and 73 nM |
| CCCCCCCCc1ccc(CCC(N)CCC(=O)O)cc1 (centres undefined) [4-Amino-6-(4-octyl-phenyl)-hexanoic acid] | 1000 nM |
